Earlier results in US20100069389A1, “NOVEL FORMS OF REBOXETINE” (Bionevia Pharmaceuticals, Inc., priority 2008, published 2010).

Settings: humans; Denolle et al., Clin Pharmacol Ther. 1999

CCOc1ccccc1OC(c1ccccc1)C1CNCCO1 (racemic) [Racemic reboxetine, (2RS)-2-[(RS)-(2-ethoxyphenoxy)-phenylmethyl]morpholine]
Blood pressure and heart rate increases compared with (R,R)-reboxetine: greater blood pressure increases and heart rate increases in humans than does administration of (R,R)-reboxetine
